In patent publication US20230000870A1, “METHODS OF TREATING CANCER IN BIOMARKER-IDENTIFIED PATIENTS WITH INHIBITORS OF CYCLIN-DEPENDENT KINASE 7 (CDK7)” (Syros Pharmaceuticals, Inc., priority 2019, published 2023):

Tests used:
[1] = target: T1, CDK12 (aa686-1082)/Cyclin K complex (Homo sapiens, UniProt Q9NYV4); test: CDK12 kinase inhibition assay (Caliper/LabChip EZ Reader); type: biochemical; conditions: CDK12 (aa686-1082)/Cyclin K 50 nM, ATP 2 mM, 3 hr at 27° C.
T1 construct: CDK12 (aa686-1082)/Cyclin K complex
T1 sequence (Q9NYV4 686-1082): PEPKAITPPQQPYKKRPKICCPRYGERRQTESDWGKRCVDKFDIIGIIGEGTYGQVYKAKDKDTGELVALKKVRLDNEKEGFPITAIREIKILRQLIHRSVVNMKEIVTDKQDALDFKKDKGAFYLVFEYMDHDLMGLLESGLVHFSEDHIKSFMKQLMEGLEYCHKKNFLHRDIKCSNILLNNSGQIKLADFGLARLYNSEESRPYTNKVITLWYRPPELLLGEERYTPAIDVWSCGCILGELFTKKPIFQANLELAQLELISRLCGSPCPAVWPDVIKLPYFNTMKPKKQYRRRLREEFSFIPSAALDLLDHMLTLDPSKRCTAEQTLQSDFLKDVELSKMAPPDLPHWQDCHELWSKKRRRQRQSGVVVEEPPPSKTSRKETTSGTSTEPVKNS
T1 sequence (O75909 whole entry partner, the tested form may be a part): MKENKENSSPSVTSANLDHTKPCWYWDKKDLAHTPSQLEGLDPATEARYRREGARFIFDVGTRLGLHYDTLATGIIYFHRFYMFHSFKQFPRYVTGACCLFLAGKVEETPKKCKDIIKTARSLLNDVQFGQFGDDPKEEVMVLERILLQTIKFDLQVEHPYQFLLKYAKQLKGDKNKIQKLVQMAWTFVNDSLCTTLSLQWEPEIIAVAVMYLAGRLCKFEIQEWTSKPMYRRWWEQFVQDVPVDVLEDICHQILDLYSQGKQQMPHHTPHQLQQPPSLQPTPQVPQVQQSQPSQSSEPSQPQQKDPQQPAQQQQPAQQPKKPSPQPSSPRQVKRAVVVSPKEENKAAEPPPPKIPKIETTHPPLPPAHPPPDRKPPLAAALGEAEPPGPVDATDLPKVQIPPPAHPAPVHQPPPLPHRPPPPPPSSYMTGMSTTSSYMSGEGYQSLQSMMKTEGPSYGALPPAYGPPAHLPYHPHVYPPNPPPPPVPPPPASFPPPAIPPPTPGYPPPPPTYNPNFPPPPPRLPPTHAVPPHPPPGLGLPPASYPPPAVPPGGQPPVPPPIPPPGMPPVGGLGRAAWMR
Description: (§1) Compounds of the invention were assayed for inhibition of CDK7, CDK9, CDK12, and CDK2 activity at Biortus Biosciences (Jiangyin, Jiangsu Province, P.R. of China) using kinase assays for each CDK developed with a Caliper/LabChip EZ Reader (Perkin Elmer, Waltham, Mass.).
(§2) Furthermore, the CDK9 inhibition assay used CDK9/Cyclin T1 complex (8 nM) and “5-FAM-CDK9tide” peptide substrate (2 μM, synthesized fluorophore-labeled peptide with the following sequence: 5-FAM-GSRTPMY-NH2 where 5-FAM is defined above and NH2 signifies a C-terminal amide) with 10 mM MgCl2 in the buffer composition listed above. The CDK12 inhibition assay used CDK12 (aa686-1082)/Cyclin K complex (50 nM) and “5-FAM-CDK9tide” (2 μM) as defined above, with 2 mM MgCl2 in the buffer composition above. Additionally, the CDK2 inhibition assay used CDK2/Cyclin E1 complex (0.5 nM) and “5-FAM-CDK7tide” (2 μM) as defined above, with 2 mM MgCl2 in the buffer composition listed above.
(§3) The incubation period at 27° C. for each CDK inhibition assay was chosen such that the fraction of phosphorylated peptide product produced in each assay, relative to the total peptide concentration, was approximately 20% (±5%) for the uninhibited kinase (35 min. for CDK7, 35 min. for CDK2, 3 hr. for CDK12, 15 min. for CDK9).

[2] = target: CDK7/Cyclin H/MAT1 complex (Homo sapiens, UniProt P50613); test: CDK7 kinase inhibition assay (Caliper/LabChip EZ Reader); type: biochemical; conditions: CDK7/Cyclin H/MAT1 6 nM, ATP 2 mM, 35 min at 27° C.
Chain of CDK7/Cyclin H/MAT1 complex (P50613 whole entry): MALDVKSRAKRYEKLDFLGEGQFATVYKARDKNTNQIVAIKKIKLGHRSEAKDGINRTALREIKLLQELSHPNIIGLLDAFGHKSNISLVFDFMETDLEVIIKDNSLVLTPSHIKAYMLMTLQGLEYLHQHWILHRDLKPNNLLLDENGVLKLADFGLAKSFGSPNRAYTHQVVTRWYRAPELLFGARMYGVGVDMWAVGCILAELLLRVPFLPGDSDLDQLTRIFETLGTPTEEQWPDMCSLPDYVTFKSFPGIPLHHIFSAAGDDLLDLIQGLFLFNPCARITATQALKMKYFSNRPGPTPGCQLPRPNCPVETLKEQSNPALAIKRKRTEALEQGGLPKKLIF
Chain of CDK7/Cyclin H/MAT1 complex (P51946 whole entry partner): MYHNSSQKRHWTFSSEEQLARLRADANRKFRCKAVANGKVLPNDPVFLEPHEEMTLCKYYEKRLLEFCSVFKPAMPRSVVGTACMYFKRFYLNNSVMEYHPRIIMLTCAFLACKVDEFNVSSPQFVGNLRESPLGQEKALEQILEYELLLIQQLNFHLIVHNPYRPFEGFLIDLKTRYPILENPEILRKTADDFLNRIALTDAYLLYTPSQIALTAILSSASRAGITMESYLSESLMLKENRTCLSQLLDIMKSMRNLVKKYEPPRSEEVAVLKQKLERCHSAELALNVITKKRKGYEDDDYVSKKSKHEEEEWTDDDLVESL
Chain of CDK7/Cyclin H/MAT1 complex (P51948 whole entry partner): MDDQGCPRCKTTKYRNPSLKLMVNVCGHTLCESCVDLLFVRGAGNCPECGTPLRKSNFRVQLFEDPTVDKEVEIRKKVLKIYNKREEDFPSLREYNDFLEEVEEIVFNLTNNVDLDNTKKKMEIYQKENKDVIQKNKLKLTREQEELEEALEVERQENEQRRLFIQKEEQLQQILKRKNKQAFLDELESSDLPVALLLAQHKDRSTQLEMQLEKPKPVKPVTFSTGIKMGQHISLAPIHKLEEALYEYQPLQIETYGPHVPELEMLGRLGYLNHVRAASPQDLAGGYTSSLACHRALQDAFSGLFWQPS
Description: as §1, §2, §3

[3] = target: CDK9/Cyclin T1 complex (Homo sapiens, UniProt P50750); test: CDK9 kinase inhibition assay (Caliper/LabChip EZ Reader); type: biochemical; conditions: CDK9/Cyclin T1 8 nM, ATP 2 mM, 15 min at 27° C.
Chain of CDK9/Cyclin T1 complex (P50750 whole entry): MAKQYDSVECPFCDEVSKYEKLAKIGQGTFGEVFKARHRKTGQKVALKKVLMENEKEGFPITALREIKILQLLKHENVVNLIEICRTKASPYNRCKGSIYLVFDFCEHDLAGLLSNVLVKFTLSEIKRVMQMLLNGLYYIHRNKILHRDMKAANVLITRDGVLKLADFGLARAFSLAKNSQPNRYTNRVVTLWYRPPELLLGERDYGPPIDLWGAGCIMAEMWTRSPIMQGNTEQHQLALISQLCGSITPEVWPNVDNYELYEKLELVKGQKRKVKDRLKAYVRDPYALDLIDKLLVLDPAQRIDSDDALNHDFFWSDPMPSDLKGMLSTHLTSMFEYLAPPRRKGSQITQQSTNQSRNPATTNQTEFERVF
Chain of CDK9/Cyclin T1 complex (O60563 whole entry partner): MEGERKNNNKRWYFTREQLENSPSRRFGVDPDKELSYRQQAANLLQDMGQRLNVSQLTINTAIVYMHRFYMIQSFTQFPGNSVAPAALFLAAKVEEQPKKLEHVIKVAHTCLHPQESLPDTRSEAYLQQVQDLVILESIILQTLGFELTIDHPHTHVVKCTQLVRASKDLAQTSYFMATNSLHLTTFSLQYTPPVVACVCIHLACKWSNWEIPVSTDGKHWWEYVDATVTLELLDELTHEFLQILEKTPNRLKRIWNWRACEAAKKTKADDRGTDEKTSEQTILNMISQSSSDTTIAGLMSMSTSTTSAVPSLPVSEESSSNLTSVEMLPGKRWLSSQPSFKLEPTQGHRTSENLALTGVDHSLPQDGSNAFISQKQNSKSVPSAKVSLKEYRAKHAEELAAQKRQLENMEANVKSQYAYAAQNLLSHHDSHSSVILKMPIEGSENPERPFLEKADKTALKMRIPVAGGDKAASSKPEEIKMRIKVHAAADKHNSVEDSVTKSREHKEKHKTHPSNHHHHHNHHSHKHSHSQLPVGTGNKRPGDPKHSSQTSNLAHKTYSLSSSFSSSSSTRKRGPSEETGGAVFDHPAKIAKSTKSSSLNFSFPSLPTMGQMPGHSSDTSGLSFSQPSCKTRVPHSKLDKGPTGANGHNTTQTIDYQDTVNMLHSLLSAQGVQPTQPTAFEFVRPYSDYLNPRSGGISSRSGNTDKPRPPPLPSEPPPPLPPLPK
Description: as §1, §2, §3

[4] = target: CDK2/Cyclin E1 complex (Homo sapiens, UniProt P24941); test: CDK2 kinase inhibition assay (Caliper/LabChip EZ Reader); type: biochemical; conditions: CDK2/Cyclin E1 0.5 nM, ATP 2 mM, 35 min at 27° C.
Description: as §1, §2, §3

[5] = system: A673 cells; test: Inhibition of proliferation of A673 cells (CyQUANT, 72 hour); type: cell-based, human; conditions: read-out: Inhibition of Proliferation of A673 Cells (calculated IC50)
Description: A673 Cells: A673 cells are a cell line derived from human muscle Ewing's sarcoma. Representative compounds of the invention were tested at different concentrations (from 4 μM to […]; 0.5 log serial dilutions) for their ability to inhibit the proliferation of A673 cells. Known CDK inhibitors dinaciclib or N-((1S,3R)-3-((5-chloro-4-(1H-indol-3-yl)pyrimidin-2-yl)amino)cyclohexyl)-5-((E)-4-(dimethylamino)but-2-enamido)picolinamide and triptolide were used as positive controls. Cells were grown in Dulbecco's Modified Eagle's Medium, +10% FBS+1 mM Sodium Pyruvate. The cells were cultured at 37° C. in a humidified chamber in the presence of 5% CO2. Proliferation assays were conducted over a 72 hour time period. CyQUANT® (Life Technologies, Chicago, Ill. USA) was used to assess the anti-proliferative effects of the compounds following manufacturer's directions and utilizing the reagents supplied with the CyQUANT® kit.

Structure (SMILES) | IC50 [1] [nM] | IC50 [2] [nM] | IC50 [3] [µM] | IC50 [4] [µM] | IC50 [5] [nM]
CC(C)N1CCCC(Nc2ncc(Cl)c(-c3c[nH]c4ccccc34)n2)C1 (stereo not drawn) [Compound 148] | 200 to 5000 | 20 to 200 | 0.2 to 5 | ≥ 5 | 20 to 200
c1ccc2c(-c3nc(NC4CCCNC4)ncc3C3CC3)c[nH]c2c1 (stereo not drawn) [Compound 135] | ≥ 5000 | 20 to 200 | ≥ 5 | ≥ 5 | 200 to 5000
FC(F)(F)c1cnc(NC2CCCNC2)nc1-c1c[nH]c2ccc(-c3cn[nH]c3)cc12 (stereo not drawn) [Compound 177] | 200 to 5000 | 20 to 200 | ≥ 5 | ≥ 5 | 200 to 5000
FC(F)(F)c1cnc(N[C@H]2CCCNC2)nc1-c1c[nH]c2ccc(Cl)cc12 [Compound 160] | 200 to 5000 | < 20 | 0.2 to 5 | 0.2 to 5 | < 20
FC(F)(F)c1cnc(N[C@H]2CCCNC2)nc1-c1c[nH]c2ccc(-c3ccnnc3)cc12 [Compound 230] | 200 to 5000 | < 20 | 0.2 to 5 | 0.2 to 5 | 20 to 200
Fc1cc2[nH]cc(-c3nc(NC4CCCNC4)ncc3C(F)(F)F)c2cc1F (stereo not drawn) [Compound 184] | 20 to 200 | < 20 | 0.02 to 0.2 | 0.02 to 0.2 | < 20
Cc1cccc2c(-c3nc(NC4CCCNC4)ncc3C(F)(F)F)c[nH]c12 (stereo not drawn) [Compound 124] | 20 to 200 | < 20 | 0.2 to 5 | 0.2 to 5 | < 20
O=C(c1ccc2c(-c3nc(N[C@H]4CCCNC4)ncc3C(F)(F)F)c[nH]c2c1)N1CC[C@@H](O)C1 [Compound 205] | 200 to 5000 | < 20 | ≥ 5 | ≥ 5 | 200 to 5000
COCCn1cc(-c2nc(NC3CCCNC3)ncc2C(F)(F)F)c2ccccc21 (stereo not drawn) [Compound 123] | ≥ 5000 | 20 to 200 | 0.2 to 5 | ≥ 5 | 200 to 5000
CC1NCCCC1Nc1ncc(Cl)c(-c2c[nH]c3ccccc23)n1 (stereo not drawn) [Compound 114] | 200 to 5000 | 20 to 200 | 0.2 to 5 | 0.2 to 5 | 20 to 200
Cc1cnc(NC2CCCNC2)nc1-c1c[nH]c2ccccc12 (stereo not drawn) [Compound 119] | 200 to 5000 | 20 to 200 | 0.2 to 5 | ≥ 5 | 20 to 200
OC1CC=C(c2cccc3c(-c4nc(NC5CCCNC5)ncc4C(F)(F)F)c[nH]c23)CC1 (stereo not drawn) [Compound 198] | 200 to 5000 | < 20 | 0.2 to 5 | 0.2 to 5 | < 20
O=C(O)c1cccc2c(-c3nc(NC4CCCNC4)ncc3Cl)c[nH]c12 (stereo not drawn) [Compound 154] | 200 to 5000 | 20 to 200 | 0.2 to 5 | ≥ 5 | 200 to 5000
O=S1(=O)CCN(c2cccc3c(-c4nc(NC5CCCNC5)ncc4Cl)c[nH]c23)CC1 (stereo not drawn) [Compound 196] | 200 to 5000 | < 20 | 0.2 to 5 | 0.2 to 5 | 20 to 200
CC(C)C1CC[C@H](Nc2ncc(C(F)(F)F)c(-c3c[nH]c4ccccc34)n2)CN1 (stereo partly drawn) [Compound 257] | ≥ 5000 | 20 to 200 | ≥ 5 | ≥ 5 | 200 to 5000
N#Cc1cn(-c2ccc3c(-c4nc(NC5CCCNC5)ncc4C(F)(F)F)c[nH]c3c2)cn1 (stereo not drawn) [Compound 249] | 200 to 5000 | < 20 | ≥ 5 | ≥ 5 | 20 to 200
O=C(c1ccc2c(-c3nc(NC4CCCNC4)ncc3C(F)(F)F)c[nH]c2c1)N1CCC(O)C1 (stereo not drawn) [Compound 204] | 200 to 5000 | < 20 | ≥ 5 | ≥ 5 | 200 to 5000
N#Cc1cc2[nH]cc(-c3nc(NC4CCCNC4)ncc3C(F)(F)F)c2cc1F (stereo not drawn) [Compound 197] | 200 to 5000 | < 20 | 0.2 to 5 | 0.2 to 5 | < 20
O=C(C1CCC(Nc2ncc(C(F)(F)F)c(-c3c[nH]c4ccccc34)n2)CN1)N1CCCC1 (stereo not drawn) [Compound 228] | 200 to 5000 | < 20 | 0.2 to 5 | 0.2 to 5 | 20 to 200
CCc1cnc(NC2CCCNC2)nc1-c1c[nH]c2ncc(F)cc12 (stereo not drawn) [Compound 231] | ≥ 5000 | ≥ 5000 | ≥ 5 | ≥ 5 | 200 to 5000
Cn1cc(-c2ccc3[nH]cc(-c4nc(NC5CCCNC5)ncc4C(F)(F)F)c3c2)cn1 (stereo not drawn) [Compound 178] | 200 to 5000 | 20 to 200 | ≥ 5 | ≥ 5 | 200 to 5000
Fc1cc2[nH]cc(-c3nc(NC4CCCNC4)ncc3Cl)c2cc1F (stereo not drawn) [Compound 111] | 20 to 200 | < 20 | 0.02 to 0.2 | 0.2 to 5 | 20 to 200
FC(F)(F)c1cnc(NC2CNCc3ccccc32)nc1-c1c[nH]c2ccccc12 (stereo not drawn) [Compound 216] | ≥ 5000 | 200 to 5000 | ≥ 5 | 0.2 to 5 | 200 to 5000
FC(F)(F)c1cnc(NC2CCCNC2)nc1-c1c[nH]c2c(Cl)cccc12 (stereo not drawn) [Compound 167] | 20 to 200 | < 20 | 0.2 to 5 | 0.2 to 5 | < 20
CCOP(=O)(OCC)c1cccc2c(-c3nc(NC4CCCNC4)ncc3C(F)(F)F)c[nH]c12 (stereo not drawn) [Compound 168] | ≥ 5000 | 200 to 5000 | ≥ 5 | ≥ 5 | 200 to 5000
CCc1cnc(NC2CCCNC2)nc1-c1n[nH]c2ccccc12 (stereo not drawn) [Compound 110] | 200 to 5000 | 20 to 200 | 0.2 to 5 | 0.2 to 5 | 20 to 200
CC(C)c1cnc(N[C@H]2CCCNC2)nc1-c1n[nH]c2nc(C#N)ccc12 [Compound 276] | ≥ 5000 | 20 to 200 | ≥ 5 | ≥ 5 | 200 to 5000
